ChEMBL document CHEMBL1159086, “Design, synthesis and SAR analysis of novel selective sigma1 ligands (Part 2)” (Bioorg Med Chem, 2010)

Columns and labels:
[1] = Displacement of [3H]ditolylguanidine from sigma 2 opioid receptor in rat liver homogenate; assay type: tissue-based
[2] = Selectivity for rat liver sigma 1 opioid receptor over rat liver sigma 2 opioid receptor
[3] = target: Sigma non-opioid intracellular receptor 1 (Rattus norvegicus, UniProt Q9R0C9); assay: Displacement of [3H](+)-pentazocine from sigma 1 opioid receptor in rat liver homogenate; assay type: tissue-based
Sigma non-opioid intracellular receptor 1, sequence (Q9R0C9 whole entry): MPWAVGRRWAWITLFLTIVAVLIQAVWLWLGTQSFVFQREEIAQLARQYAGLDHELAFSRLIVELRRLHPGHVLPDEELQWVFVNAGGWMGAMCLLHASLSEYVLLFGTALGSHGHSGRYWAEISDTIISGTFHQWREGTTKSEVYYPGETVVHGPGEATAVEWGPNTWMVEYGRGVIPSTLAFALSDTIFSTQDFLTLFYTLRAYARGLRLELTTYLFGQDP

[4] = target: Delta-type opioid receptor (Rattus norvegicus) (UniProt P33533); assay: Displacement of [3H]DPDPE from delta opioid receptor in rat brain homogenate at 1 uM; assay type: tissue-based
Delta-type opioid receptor (Rattus norvegicus), sequence (P33533 whole entry): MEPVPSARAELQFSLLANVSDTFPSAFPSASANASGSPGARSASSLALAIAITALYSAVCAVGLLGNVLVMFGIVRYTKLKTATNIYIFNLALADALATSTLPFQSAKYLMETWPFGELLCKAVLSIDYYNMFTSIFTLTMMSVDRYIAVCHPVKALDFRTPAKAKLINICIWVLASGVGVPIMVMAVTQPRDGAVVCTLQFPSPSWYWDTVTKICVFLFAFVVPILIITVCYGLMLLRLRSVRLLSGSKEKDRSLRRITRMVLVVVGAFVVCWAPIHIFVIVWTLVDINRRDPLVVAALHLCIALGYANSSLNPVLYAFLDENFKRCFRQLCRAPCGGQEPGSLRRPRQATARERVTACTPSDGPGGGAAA

[5] = target: Kappa-type opioid receptor (Cavia porcellus) (UniProt P41144); assay: Displacement of [3H]-U-69593 from kappa-type opioid receptor in guinea pig brain homogenate at 1 uM; assay type: tissue-based
Kappa-type opioid receptor (Cavia porcellus), sequence (P41144 whole entry): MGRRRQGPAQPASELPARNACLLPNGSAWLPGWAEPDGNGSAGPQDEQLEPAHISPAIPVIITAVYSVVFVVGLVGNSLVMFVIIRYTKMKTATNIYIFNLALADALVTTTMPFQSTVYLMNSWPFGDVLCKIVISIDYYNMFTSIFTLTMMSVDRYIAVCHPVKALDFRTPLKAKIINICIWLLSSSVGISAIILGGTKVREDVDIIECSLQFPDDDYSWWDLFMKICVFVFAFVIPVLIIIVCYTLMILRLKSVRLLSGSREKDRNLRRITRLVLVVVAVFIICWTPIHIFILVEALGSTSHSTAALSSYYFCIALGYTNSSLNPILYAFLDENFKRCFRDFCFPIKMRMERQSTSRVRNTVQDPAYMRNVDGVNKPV

[6] = target: Mu-type opioid receptor (Cavia porcellus, UniProt P97266); assay: Displacement of [3H]DAMGO from mu-type opioid receptor in guinea pig brain homogenate; assay type: tissue-based
Mu-type opioid receptor, sequence (P97266 whole entry): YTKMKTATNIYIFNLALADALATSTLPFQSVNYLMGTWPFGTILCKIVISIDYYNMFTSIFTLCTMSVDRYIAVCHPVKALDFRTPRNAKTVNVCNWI

[7] = target: Mu-type opioid receptor (Cavia porcellus) (UniProt P97266); assay: Displacement of [3H]DAMGO from mu-type opioid receptor in guinea pig brain homogenate at 1 uM; assay type: tissue-based
Mu-type opioid receptor (Cavia porcellus), sequence (P97266 whole entry): as above

[8] = target: Delta-type opioid receptor (Rattus norvegicus, UniProt P33533); assay: Displacement of [3H]DPDPE from delta opioid receptor in rat brain homogenate; assay type: tissue-based
Delta-type opioid receptor, sequence (P33533 whole entry): as the sequence (P33533 whole entry) above

[9] = target: Kappa-type opioid receptor (Cavia porcellus, UniProt P41144); assay: Displacement of [3H]-U-69593 from kappa-type opioid receptor in guinea pig brain homogenate; assay type: tissue-based
Kappa-type opioid receptor, sequence (P41144 whole entry): as the sequence (P41144 whole entry) above

Ki [1] [nM] | selectivity ratio [2] | Ki [3] [nM] | inhibition [4] [%] | inhibition [5] [%] | Ki [6] [nM] | inhibition [7] [%] | Ki [8] [nM] | Ki [9] [nM] | Structure (SMILES)
309 | 74 | 4.17 | – | – | – | – | – | – | C/C(=C\CN(C)Cc1ccccc1)c1ccc(-c2ccccc2)cc1
568 | 41 | 13.7 | – | – | – | – | – | – | COc1ccc2cc(/C(C)=C/CN(C)Cc3ccccc3)ccc2c1
214 | 60 | 3.59 | 0 | 15 | 248 | – | – | – | CC(CCN(C)Cc1ccccc1)c1ccc(-c2ccccc2)cc1 (racemic)
940 | 156 | 6.04 | – | 30 | – | 32 | 41 | – | COc1ccc2cc(C(C)(O)CCN(C)Cc3ccccc3)ccc2c1 (racemic)
215 | 90 | 2.38 | 31 | 30 | – | 45 | – | – | CN(CCC(C)(O)c1ccc(-c2ccccc2)cc1)Cc1ccccc1 (racemic)
> 10000 | > 258 | 38.8 | – | – | – | – | – | – | COc1ccc2cc(C(C)(O)CCN(C)C)ccc2c1 (racemic)
169 | 73 | 2.31 | – | – | – | 32 | 171 | 841 | COc1ccc2cc(C(C)CCN(C)Cc3ccccc3)ccc2c1 (racemic)

Second part, the molecule before the results:

Structure (SMILES) | Ki [1] [nM] | selectivity ratio [2] | Ki [3] [nM] | inhibition [4] [%] | inhibition [5] [%] | Ki [6] [nM] | inhibition [7] [%] | Ki [8] [nM] | Ki [9] [nM]
COc1ccc2cc(/C(C)=C/CN(C)C)ccc2c1 | 707 | 26 | 27.3 | – | – | – | – | – | –
COc1ccc2cc(/C(C)=C/CN3CCCCC3)ccc2c1 | 136 | 31 | 4.41 | – | – | – | – | – | –
COc1ccc2cc(C(C)(O)CCN3CCCCC3)ccc2c1 (stereo not drawn) | 154 | 15 | 10.4 | – | – | – | – | – | –
COc1ccc2cc(C(C)CCN(C)C)ccc2c1 (racemic) | 1550 | 108 | 14.4 | – | – | – | – | – | –
COc1ccc2cc(C(C)CCN3CCCCC3)ccc2c1 (racemic) | 169 | 131 | 1.29 | – | – | – | – | – | –
